Results on twelve compounds are retold here after EP0349941A2, “Morpholino derivatives of rhodomycins, process for their preparation and their use” (BEHRINGWERKE Aktiengesellschaft, priority 1988, dated 1990).

Values after ≈ are worked out from the molar mass of the structure shown. Like-named read-outs stand apart in the source and are kept apart here.

For one test, the system named is L1210. The test can be described thus: Proliferation test (MTT reduction), L1210. It is filed as cell-based, Maus. The conditions noted are these: L1210 cells, 72 h incubation; for IC50: Mus musculus, read-out: IC₅₀ MTT-ASSAY L1210. As to the method: (§1) L1210, A 549 oder HT 29 in exponentieller Wachstumsphase wurden in einer Zelldichte von 5 x 10³ Zellen/ml in RPMI 1640 in einer 96 Well Mikrotiterplatte für 72 h mit unterschiedlichen Konzentrationen der Testsubstanz bei 37° C, 5 % CO₂ und 95 % relativer Luftfeuchte inkubiert. Kontrollexperimente erhielten anstelle der Testsubstanz lediglich Wachstumsmedium. Für jede Testsubstanz sowie für die Kontrolle wurden 4fach Bestimmungen angesetzt. Nach 65 h Inkubation wurden 50 µl einer MTT-Lösung (2,5 mg/ml in Phosphat-gepuffertem Kochsalz) zugegeben. In Gegenwart lebender Zellen wurde MTT zu einem dunkelroten unlöslichen Formazanfarbstoff reduziert. Diese Reaktion war nach 7 h (L1210 Zellen) bzw. nach 24 h (A 549, HT 29 Zellen) beendet und das überstehende Medium wird sorgfältig abgesaugt. Der unlösliche Farbstoff wurde durch Zugabe von 100 µl DMSO aufgelöst und die Extinktion der so entstehenden Lösung anschließend für jedes Well in einem Multiscan Photometer 340 CC der Fa. Flow bei einer Wellenlänge von 492 nm vermessen.
(§2) Aus dem Verhältnis der Extinktionen behandelter und unbehandelter Zellen ergab sich eine Dosis-Wirkungskurve, aus der die Konzentration, die gerade 50 % der Zellen (IC₅₀) abtötet, abgelesen werden konnte. Für wiederholte Untersuchungen betrug der Variationskoeffizient weniger als 15 %.
In general terms: Formazan colour is commonly taken as a measure of viable cells.

A further test concerns HT 29. The test can be described thus: Proliferation test (MTT reduction), HT 29. The test is classed as cell-based, menschlichen. Particulars: HT 29 cells, 72 h incubation; for IC50: Homo sapiens, read-out: IC₅₀ MTT-ASSAY HT 29. As to the method:
as §1, §2

The subject of the next test is A 549. The test can be described thus: Proliferation test (MTT reduction), A 549. The test is classed as cell-based, menschlichen. Particulars: A 549 cells, 72 h incubation; for IC50: Homo sapiens, A549, read-out: IC₅₀ MTT-ASSAY A 549. As to the method:
as §1, §2

A further test has as its system L1210 Leukämiezellen. The test can be described thus: Cytotoxicity against L1210 leukaemia cells (stem cell assay, colony formation in soft agar). The conditions noted are these: colonies counted after 5-7 days; for IC50: Mus musculus, L1210. It is filed as cell-based, Maus. As to the method:
Der Test wurde entsprechend der von Hamburger und Salmon beschriebenen Methodik mit den unten beschriebenen Modifikationen durchgeführt.
Konditioniertes Medium wurde durch McCoy 5A Medium ersetzt. Als Folge der hohen Klonierungsrate der L1210 Leukämiezellen in Soft Agar wurde die Anzahl an Tumorzellen pro Platte auf 5 x 10² reduziert.
Die Zellen wurden mit unterschiedlichen Konzentrationen der Testsubstanz für 1 h bei 37° C inkubiert. Anschlie-ßend wurden die Zellen zweimal mit McCoy 5A Medium gewaschen und anschließend in einem Zwei-Schichten-Agar System als obere Schicht entsprechend der Methode von Hamburger und Salmon ausplattiert.
Zusätzliche Parallelexperimente wurden unter Verwendung einer kontinuierlichen Inkubationszeit durchgeführt, wobei unterschiedliche Konzentrationen der Testsubstanz der oberen Agarschicht vor Ausplattieren der Zellen zugemischt wurden.
Die Platten wurden in einem Brutschrank mit 5 % CO₂, 20 % O₂ und 95 % relativer Luftfeuchte für 5-7 Tage inkubiert. Nach dieser Zeit wurden Kolonien mit einem Durchmesser von 60 µm mit Hilfe eines Invertoskopes gezählt.
Die Ergebnisse wurden angegeben als prozentualer Anteil der Kolonien in behandelten versus unbehandelten Gruppen. Der Variationskoeffizient bei wiederholten Experimenten war kleiner als 15 %.
Die an den getesteten Verbindungen erhaltenen Resultate sind in der Tabelle 1 enthalten. Aus der Dosis-Wirkungskurve wurde die IC₅₀ für die kontinuierliche und einstündige Inkubation bestimmt (Tab. 1).

Another test has as its system L1210 Leukämie der Maus. The test can be described thus: In vivo efficacy against L1210 leukaemia of the mouse. Particulars: L1210 tumour model in vivo. The method, then: Ascitesflüssigkeit wurde unter sterilen Bedingungen DBA2 Mäusen (weiblich, 18 - 20 g) 7 Tage nach Implantation entnommen. Der Ascites wurde dreimal mit PBS gewaschen, gezählt und auf eine Zellzahl von 10⁶ in 0.2 ml PBS eingestellt. 10⁶ Zellen, suspendiert in 0.2 ml PBS, wurden anschlie-ßend DBF1 Mäusen (weiblich, 18 - 20 g) intraperitoneal injiziert. 6 Tiere pro Gruppe wurden für jede Substanzkonzentration bzw. als Kontrolle eingesetzt.
Zur Ermittlung der antitumoralen Wirksamkeit wurden die Tiere am Tag 1 und 5 nach Injektion der Testsubstanz gewogen. Gewichtsverlust von mehr als 20 % am Tag 5 wurde als Indikator einer toxischen Substanzwirkung angesehen.
Am Ende des Experimentes (Tod aller Tiere oder überlebende Tiere am Tag 60) wurde die mittlere Überlebenszeit der Tiere in den jeweiligen Gruppen bestimmt, sofern am Tag 5 des Experimentes mindestens 65 % der Tiere noch gelebt hatten. Die mittlere Überlebenszeit wurde ausschließlich für im Verlaufe des Experimentes sterbende Tiere bestimmt. Langzeitüberlebende (LTS) wurden bei dieser Berechnung nicht berücksichtigt und gesondert aufgeführt.
Aus der mittleren Überlebenszeit (MSTr) der behandelten Gruppen sowie der Kontrollgruppen (MSTc) wurde die antitumorale Wirksamkeit (T/C) für die jeweilige Substanzkonzentration in Prozent der unbehandelten Kontrolle entsprechend der folgenden Formel bestimmt: [formula] […]

Setting [1] is: 1 h incubation at 37° C, read-out: IC₅₀ STEM CELL ASSAY 1 h exp. L1210.
Setting [2] is: continuous incubation, read-out: IC₅₀ STEM CELL ASSAY cont. exp. L1210.

For the compound “7-0-(3′-(3˝ oder 5˝-Cyano-6˝(S)-hydroxymethyl-2˝(S)-methoxy-4˝-morpholinyl)-2′,3′,6′-tri-desoxy-alpha-L-lyxohexopyranosyl)-epsilon-isorhodomycinon [XXIII]”, the “IC₅₀ MTT-ASSAY L1210” value with L1210 stood at 0.0009 µg/mL. The “IC₅₀ MTT-ASSAY HT 29” value in the test with HT 29 worked out at 0.0031 µg/mL. In addition, the “IC₅₀ MTT-ASSAY A 549” value with A 549 stood at 0.0021 µg/mL. Also, the “IC₅₀ STEM CELL ASSAY 1 h exp. L1210” value in the test with L1210 Leukämiezellen (1 h incubation at 37° C) is 0.027 µg/mL.
Consider “7-0-(3′-(3˝- oder 5˝-Cyano-6˝(S)-hydroxymethyl-2˝(S)methoxy-4˝-morpholinyl)-2′,3′,6′-tri-desoxy-alpha-L-lyxohexopyranosyl)-ß-rhodomycinon [XXV]”, for which, in the test on L1210, the “IC₅₀ MTT-ASSAY L1210” value is 0.0005 µg/mL. The “IC₅₀ MTT-ASSAY HT 29” value with HT 29 was found to be 0.002 µg/mL. In the test with A 549, the “IC₅₀ MTT-ASSAY A 549” value was 0.003 µg/mL. In the test with L1210 Leukämiezellen (1 h incubation at 37° C), the “IC₅₀ STEM CELL ASSAY 1 h exp. L1210” value was found to be 0.007 µg/mL.
“7-0-(3′-(3˝-oder 5˝-Cyano-6˝(S)-hydroxymethyl-2˝(S)-methoxy-4˝-morpholinyl)-2′,3′,6′-tri-desoxy-alpha-L-arabinohexopyranosyl)-epsilon-isorhodomycinon [XXIV]”: in the test on L1210, the “IC₅₀ MTT-ASSAY L1210” value stood at 0.0071 µg/mL. Also, the “IC₅₀ MTT-ASSAY HT 29” value with HT 29 was 0.017 µg/mL. Also, the “IC₅₀ MTT-ASSAY A 549” value in the test with A 549 was 0.011 µg/mL. Moreover, in the test on L1210 Leukämiezellen (1 h incubation at 37° C), the “IC₅₀ STEM CELL ASSAY 1 h exp. L1210” value is 0.034 µg/mL.
Take `CC[C@@]1(O)C[C@H](O[C@H]2C[C@H](N3C[C@@H](CO)O[C@@H](OC)C3)[C@H](O)[C@H](C)O2)c2c(O)c3c(c(O)c2[C@H]1C(=O)OC)C(=O)c1c(O)ccc(O)c1C3=O` [IX, 7-0-(3′-(6˝(S)-Hydroxymethyl-2˝(R)-methoxy-4˝-morpholinyl)-2′,3′,6′-tri-desoxy-alpha-L-lyxohexopyranosyl)-epsilon-isorhodomycinon]: the IC50 in the test on L1210 Leukämiezellen (setting [1]) was found to be 1 µg/mL (≈ 1.42 µM); with L1210 Leukämiezellen (setting [2]) it was 0.12 µg/mL (≈ 0.171 µM).
Consider `CC[C@@]1(O)C[C@H](O[C@H]2C[C@H](N3C[C@@H](CO)O[C@H](OC)C3)[C@H](O)[C@H](C)O2)c2c(O)c3c(c(O)c2[C@H]1C(=O)OC)C(=O)c1c(O)ccc(O)c1C3=O` [VIII, 7-0-(3′-(6˝(s)-Hydroxymethyl-2˝(s)-methoxy-4˝-morpholinyl)-2′,3′,6′-tri-desoxy-alpha-L-lyxohexopyranosyl)-epsilon-isorhodomycinon], for which the IC50 with L1210 came out at 0.009 µg/mL (≈ 0.0128 µM); in the test on HT 29 it was 0.035 µg/mL (≈ 0.0497 µM); with A 549, 0.038 µg/mL (≈ 0.054 µM); in the test with L1210 Leukämiezellen (setting [1]), 0.95 µg/mL (≈ 1.35 µM); with L1210 Leukämiezellen (setting [2]) it was 0.029 µg/mL (≈ 0.0412 µM). The “Wirkung in dem L1210 Tumormodell in vivo” value with L1210 Leukämie der Maus was “kurativ wirksam”.
`CCC1(O)CC(O[C@H]2C[C@H](N3CCOCC3)[C@H](O)[C@H](C)O2)c2c(O)c3c(c(O)c2C1C(=O)OC)C(=O)c1c(O)ccc(O)c1C3=O` (stereo partly drawn) [Verbindung 26, 7-0-(3′-(4˝-Morpholinyl)-2′,3′,6′-tridesoxy-alpha-L-lyxohexopyranosyl)-epsilon-isorhodomycinon]: the “Wirkung in dem L1210 Tumormodell in vivo” value in the test with L1210 Leukämie der Maus was “nur eine marginale Wirkung”.
Take `CC[C@@]1(O)C[C@H](O[C@H]2C[C@H](N3C[C@@H](CO)O[C@@H](n4cnc5c(N)ncnc54)C3)[C@H](O)[C@H](C)O2)c2c(O)c3c(c(O)c2[C@H]1C(=O)OC)C(=O)c1c(O)ccc(O)c1C3=O` [XIV]: the IC50 in the test with L1210 Leukämiezellen (setting [1]) is 0.5 µg/mL (≈ 0.62 µM); with L1210 Leukämiezellen (setting [2]), 1 µg/mL (≈ 1.24 µM).
Regarding `CC[C@@]1(O)C[C@H](O[C@H]2C[C@H](N3C[C@@H](OC)O[C@@H](C)C3)[C@H](O)[C@H](C)O2)c2c(O)c3c(c(O)c2[C@H]1O)C(=O)c1cccc(O)c1C3=O` [XIX, 7-0-(3′-(6˝(S)-methyl-2˝(S)-methoxy-4˝-morpholinyl)-2′, 3′,6′-tridesoxy-alpha-L-lyxohexopyranosyl)-ß-rhodomycinon], the IC50 in the test with L1210 Leukämiezellen (setting [1]) was 0.095 µg/mL (≈ 0.151 µM); in the test with L1210 Leukämiezellen (setting [2]) it was 0.021 µg/mL (≈ 0.0334 µM).
On to `CC[C@@]1(O)C[C@H](O[C@H]2C[C@H](N3C[C@@H](CO)O[C@H](OC)C3)[C@@H](O)[C@H](C)O2)c2c(O)c3c(c(O)c2[C@H]1C(=O)OC)C(=O)c1c(O)ccc(O)c1C3=O` [XV, 7-0-(3′-(6˝(S)-Hydroxymethyl-2˝(S)-methoxy-4˝-morpholinyl)-2′,3′,6′-tri-desoxy-alpha-L-arabinohexopyranosyl)epsilon-isorhodomycinon], for which the IC50 with L1210 was determined as 0.035 µg/mL (≈ 0.0497 µM); in the test with HT 29 it was 0.03 µg/mL (≈ 0.0426 µM); with A 549, 0.038 µg/mL (≈ 0.054 µM); in the test on L1210 Leukämiezellen (setting [1]), 0.32 µg/mL (≈ 0.455 µM); in the test with L1210 Leukämiezellen (setting [2]) it was 0.078 µg/mL (≈ 0.111 µM).
On the same counts, the results for `CC[C@@]1(O)C[C@H](O[C@H]2C[C@H](N3C[C@@H](CO)O[C@H](OC)C3)[C@H](O)[C@H](C)O2)c2c(O)c3c(c(O)c2[C@H]1O)C(=O)c1cccc(O)c1C3=O` [XVI, 7-0-(3′-(6˝(S)-Hydroxymethyl-2˝(S)-methoxy-4˝-morpholinyl)-2′,3′,6′-tri-desoxy-alpha-L-lyxohexopyranosyl)-ß-rhodomycinon] are 0.036 µg/mL (≈ 0.0558 µM), 0.11 µg/mL (≈ 0.17 µM), 0.046 µg/mL (≈ 0.0712 µM), 0.15 µg/mL (≈ 0.232 µM) and 0.026 µg/mL (≈ 0.0403 µM).
Turning to `CC[C@@]1(O)C[C@H](O[C@H]2C[C@H](N3C[C@@H](CO)O[C@@H](OC)C3)[C@H](O)[C@H](C)O2)c2c(O)c3c(c(O)c2[C@H]1O)C(=O)c1cccc(O)c1C3=O` [XVII, 7-0-(3′-(6˝(S)-Hydroxymethyl-2˝(R)-methoxy-4˝-morpholinyl)-2′,3′,6′-tri-desoxy-alpha-L-lyxohexopyranosyl)-ß-rhodomycinon], the IC50 with L1210 Leukämiezellen (setting [1]) was determined as 1 µg/mL (≈ 1.55 µM); in the test on L1210 Leukämiezellen (setting [2]) it was 0.55 µg/mL (≈ 0.852 µM).
Turning to `CC[C@@]1(O)C[C@H](O[C@H]2C[C@H](N3C[C@H]4CO[C@@H](C3)O4)[C@H](O)[C@H](C)O2)c2c(O)c3c(c(O)c2[C@H]1O)C(=O)c1cccc(O)c1C3=O` [XX, 7-0-(3′-(2˝,6˝-Epoximethano-4˝-morpholinyl)-2′,3′,6′-tridesoxy-alpha-L-lyxohexopyranosyl)-ß-rhodomycinon], the IC50 in the test with L1210 came out at 0.008 µg/mL (≈ 0.013 µM); with HT 29, 0.036 µg/mL (≈ 0.0587 µM); in the test with A 549 it was 0.014 µg/mL (≈ 0.0228 µM); with L1210 Leukämiezellen (setting [1]), 0.12 µg/mL (≈ 0.196 µM).
